Results: patent publication US12312370B2, “Immunoproteasome inhibitors” (Principia Biopharma Inc., priority 2017, dated 2025)

Columns and labels:
[1] = molecular target: immunoproteasome LMP7/B5i subunit (Homo sapiens, UniProt P28062); test: Caliper-based proteasome enzymatic activity assay, LMP7; format: biochemical; settings: human recombinant immunoproteasome 0.3 nM, FAM-labeled peptide substrate 1 μM, rt 3 h; read-out: LMP7 subunit IC50
[2] = molecular target: constitutive proteasome β5c unit (Homo sapiens, UniProt P28074); test: Caliper-based proteasome enzymatic activity assay, β5c; format: biochemical; settings: human recombinant constitutive proteasome 0.3 nM, FAM-labeled peptide substrate 1 μM, rt 3 h; read-out: β5c subunit IC50

| Structure (SMILES) | IC50 [1] [nM] | IC50 [2] [nM] |
| --- | --- | --- |
| CC(C)(C=C(C#N)C(=O)N1CCC[C@H](COC(=O)N[C@@H](Cc2ccccc2)B(O)O)C1)N1CCC(F)(F)C1 [Example 53, ((R)-1-(((((S)-1-(2-cyano-4-(3,3-difluoropyrrolidin-1-yl)-4-methylpent-2-enoyl)piperidin-3-yl)methoxy)carbonyl)amino)-2-phenylethyl)boronic acid] | 4.4 | > 5000 |
| C=CC(=O)N1C2CCC1(COC(=O)N[C@@H](CCc1ccccc1)B(O)O)CC2 [Example 71, (R)-(1-((((7-acryloyl-7-azabicyclo[2.2.1]heptan-1-yl)methoxy)carbonyl)amino)-3-phenylpropyl)boronic acid] | 528 | > 5000 |
| C=CC(=O)N1CC[C@H]1COC(=O)N[C@@H](Cc1ccccc1)B(O)O [Example 51, ((R)-1-(((((S)-1-acryloylazetidin-2-yl)methoxy)carbonyl)amino)-2-phenylethyl)boronic acid] | 256 | 1430 |
| CC(C)(C=C(C#N)C(=O)N1CCC[C@@H](CC(=O)N[C@@H](Cc2ccccc2)B(O)O)C1)N1CCC(F)(F)C1 [Example 59, ((R)-1-(2-((S)-1-(2-cyano-4-(3,3-difluoropyrrolidin-1-yl)-4-methylpent-2-enoyl)piperidin-3-yl)acetamido)-2-phenylethyl)boronic acid] | 21 | 163 |
| C=CC(=O)N1CCC[C@H](OC(=O)N[C@@H](Cc2coc3ccccc23)B(O)O)C1 [Example 65, ((R)-1-(((((S)-1-acryloylpiperidin-3-yl)oxy)carbonyl)amino)-2-(benzofuran-3-yl)ethyl)boronic acid] | 7.5 | 418 |
| CC(C)(C=C(C#N)C(=O)N1CCC[C@H](NC(=O)N[C@@H](Cc2ccccc2)B(O)O)C1)N1CCC(F)(F)C1 [Example 112, ((R)-1-(3-((S)-1-(2-cyano-4-(3,3-difluoropyrrolidin-1-yl)-4-methylpent-2-enoyl)piperidin-3-yl)ureido)-2-phenylethyl)boronic acid] | 143 | 2240 |
| CC(C)(C=C(C#N)C(=O)N1CCC[C@@H](OC(=O)N[C@@H](Cc2ccccc2)B(O)O)C1)N1CCC(F)(F)C1 [Example 55, ((R)-1-(((((R)-1-(2-cyano-4-(3,3-difluoropyrrolidin-1-yl)-4-methylpent-2-enoyl)piperidin-3-yl)oxy)carbonyl)amino)-2-phenylethyl)boronic acid] | 5.1 | 3880 |
| C=CC(=O)N1CCC[C@H](OC(=O)N[C@@H](Cc2ccc(C(F)(F)F)cc2)B(O)O)C1 [Example 66, ((R)-1-(((((S)-1-acryloylpiperidin-3-yl)oxy)carbonyl)amino)-2-(4-(trifluoromethyl)phenyl)ethyl)boronic acid] | 148 | > 5000 |
| CC(C)(C=C(C#N)C(=O)N1CCO[C@H](CC(=O)N[C@@H](Cc2ccccc2)B(O)O)C1)N1CCC(F)(F)C1 [Example 58, ((R)-1-(2-((R)—4-(2-cyano-4-(3,3-difluoropyrrolidin-1-yl)-4-methylpent-2-enoyl)morpholin-2-yl)acetamido)-2-phenylethyl)boronic acid] | 10 | 139 |
| C=CC(=O)N1CC[C@@H]1COC(=O)N[C@@H](Cc1coc2ccccc12)B(O)O [Example 62, ((R)-1-(((((R)-1-acryloylazetidin-2-yl)methoxy)carbonyl)amino)-2-(benzofuran-3-yl)ethyl)boronic acid] | 2.3 | 126 |
| CN(C[C@H]1CCCCN1C(=O)C(C#N)=CC(C)(C)N1CCC(F)(F)C1)C(=O)N[C@@H](Cc1ccccc1)B(O)O [Example 64] | > 5000 | > 5000 |
| CC1(C)CCN(C(C)(C)C=C(C#N)C(=O)N2CCC[C@H](OC(=O)N[C@@H](Cc3ccc(F)cc3)B(O)O)C2)C1 [Example 72, ((R)-1-(((((S)-1-(2-cyano-4-(3,3-dimethylpyrrolidin-1-yl)-4-methylpent-2-enoyl)piperidin-3-yl)oxy)carbonyl)amino)-2-(4-fluorophenyl)ethyl)boronic acid] | 5.4 | 851 |
| CC(C)(C=C(C#N)C(=O)N1CCC[C@H](OC(=O)N[C@@H](CC2=CCCC2)B(O)O)C1)N1CCC(F)(F)C1 [Example 117, ((R)-1-(((((S)-1-(2-cyano-4-(3,3-difluoropyrrolidin-1-yl)-4-methylpent-2-enoyl)piperidin-3-yl)oxy)carbonyl)amino)-2-(cyclopent-1-en-1-yl)ethyl)boronic acid] | 4.3 | > 5000 |

Continued, values first:

| IC50 [1] [nM] | IC50 [2] [nM] | Structure (SMILES) |
| --- | --- | --- |
| 1.9 | 140 | CC(C)(C=C(C#N)C(=O)N1C[C@H](F)[C@H](OC(=O)N[C@@H](Cc2ccccc2)B(O)O)C1)N1CCC(F)(F)C1 [Example 111, ((R)-1-(((((3R,4S)-1-(2-cyano-4-(3,3-difluoropyrrolidin-1-yl)-4-methylpent-2-enoyl)-4-fluoropyrrolidin-3-yl)oxy)carbonyl)amino)-2-phenylethyl)boronic acid] |
| 3.7 | 810 | CC(C)(C=C(C#N)C(=O)N1C[C@@H](F)[C@@H](OC(=O)N[C@@H](Cc2ccccc2)B(O)O)C1)N1CCC(F)(F)C1 [Example 125, ((R)-1-(((((3S,4R)-1-(2-cyano-4-(3,3-difluoropyrrolidin-1-yl)-4-methylpent-2-enoyl)-4-fluoropyrrolidin-3-yl)oxy)carbonyl)amino)-2-phenylethyl)boronic acid] |
| 1.9 | 1150 | C[C@@H]1CN(C(C)(C)C=C(C#N)C(=O)N2C3CCC2(COC(=O)N[C@@H](Cc2ccccc2)B(O)O)CC3)CCO1 [Example 118, ((R)-1-((((7-(2-cyano-4-methyl-4-((R)-2-methylmorpholino)pent-2-enoyl)-7-azabicyclo[2.2.1]heptan-1-yl)methoxy)carbonyl)amino)-2-phenylethyl)boronic acid] |
| 0.8 | 1080 | CC(C)(C=C(C#N)C(=O)N1C2CCC1(COC(=O)N[C@@H](Cc1ccccc1)B(O)O)CC2)N1CC2CC(C1)O2 [Example 132, ((1R)-1-((((7-(4-(6-oxa-3-azabicyclo[3.1.1]heptan-3-yl)-2-cyano-4-methylpent-2-enoyl)-7-azabicyclo[2.2.1]heptan-1-yl)methoxy)carbonyl)amino)-2-phenylethyl)boronic acid] |
| 2.4 | 2420 | C[C@@H]1CN(C(C)(C)C=C(C#N)C(=O)N2CCCC[C@@H](OC(=O)N[C@@H](Cc3ccccc3)B(O)O)C2)C[C@H](C)O1 [Example 127, ((R)-1-(((((R)-1-(2-cyano-4-((2S,6R)-2,6-dimethylmorpholino)-4-methylpent-2-enoyl)azepan-3-yl)oxy)carbonyl)amino)-2-phenylethyl)boronic acid] |
| 0.9 | 832 | C[C@H]1CN(C(C)(C)C=C(C#N)C(=O)N2C3CCC2(COC(=O)N[C@@H](Cc2ccccc2)B(O)O)CC3)C[C@H](C)O1 [Example 123, ((R)-1-((((7-(2-cyano-4-((2S,6S)-2,6-dimethylmorpholino)-4-methylpent-2-enoyl)-7-azabicyclo[2.2.1]heptan-1-yl)methoxy)carbonyl)amino)-2-phenylethyl)boronic acid] |
| 2.6 | 1480 | C[C@@H]1CN(C(C)(C)C=C(C#N)C(=O)N2CCCC[C@@H](OC(=O)N[C@@H](Cc3ccccc3)B(O)O)C2)CCO1 [Example 131, ((R)-1-(((((R)-1-(2-cyano-4-methyl-4-((R)-2-methylmorpholino)pent-2-enoyl)azepan-3-yl)oxy)carbonyl)amino)-2-phenylethyl)boronic acid] |
| 2 | 1170 | C[C@H]1CN(C(C)(C)C=C(C#N)C(=O)N2C3CCC2(COC(=O)N[C@@H](Cc2ccccc2)B(O)O)CC3)CCO1 [Example 122, ((R)-1-((((7-(2-cyano-4-methyl-4-((S)-2-methylmorpholino)pent-2-enoyl)-7-azabicyclo[2.2.1]heptan-1-yl)methoxy)carbonyl)amino)-2-phenylethyl)boronic acid] |
| 2.4 | > 5000 | CC(C)(C=C(C#N)C(=O)N1CCCC[C@H](OC(=O)N[C@@H](Cc2ccccc2)B(O)O)C1)N1CCOCC1 (single isomer, unassigned) [Example 104] |
| 1.8 | 2220 | CC(C)(C=C(C#N)C(=O)N1C2CCC1(COC(=O)N[C@@H](Cc1ccccc1)B(O)O)CC2)N1CCOCC1 [Example 81] |
| 4 | 1200 | CC(C)(C=C(C#N)C(=O)N1CCC[C@@H]1CNC(=O)N[C@@H](Cc1coc2ccccc12)B(O)O)N1CCC(F)(F)C1 [Example 50, ((R)-2-(benzofuran-3-yl)-1-(3-(((R)-1-(2-cyano-4-(3,3-difluoropyrrolidin-1-yl)-4-methylpent-2-enoyl)pyrrolidin-2-yl)methyl)ureido)ethyl)boronic acid] |
| 4.3 | 3.3 | C=CS(=O)(=O)N(C)c1cccc(C[C@H](NC(=O)c2cc(Cl)ccc2Cl)C(=O)N[C@@H](Cc2ccccc2)B(O)O)c1 [Example 16, ((R)-1-((S)-2-(2,5-dichlorobenzamido)-3-(3-(N-methylvinylsulfonamido)phenyl)propanamido)-2-phenylethyl)boronic acid] |
| 3.9 | 1380 | CN1CCN(C(C)(C)C=C(C#N)C(=O)N2CCC[C@H](OC(=O)N[C@@H](Cc3ccccc3)B(O)O)C2)CC1 [Example 80, ((R)-1-(((((S)-1-(2-cyano-4-methyl-4-(4-methylpiperazin-1-yl)pent-2-enoyl)piperidin-3-yl)oxy)carbonyl)amino)-2-phenylethyl)boronic acid] |
| 2.5 | 2660 | CC(C)(C=C(C#N)C(=O)N1CCCC[C@H](OC(=O)N[C@@H](Cc2ccccc2)B(O)O)C1)N1CCC(F)(F)C1 [Example 106, ((R)-1-(((((S)-1-(2-cyano-4-(3,3-difluoropyrrolidin-1-yl)-4-methylpent-2-enoyl)azepan-3-yl)oxy)carbonyl)amino)-2-phenylethyl)boronic acid] |
